# Data as given in US20230181027A1, “METHODS AND MATERIALS FOR TREATING NEUROMYELITIS OPTICA SPECTRUM DISEASES” (Mayo Foundation for Medical Education and Research, priority 2019, published 2023).
# Assays:
# [1] = tested on: murine model of NMO; assay: Rotarod test (latency to fall) in murine model of NMO with intrathecal NMO-IgG infusion; format: in vivo, mice
# Text: To investigate the cellular and molecular mechanisms underlying NMO pathology, a murine model was developed that utilizes IgG purified from NMO patient serum (NMO-IgG) or monoclonal AQP4-specific IgG. IgG collected from healthy individuals, or from healthy control subjects (control-IgG), or a control monoclonal IgG of irrelevant specificity was used in each experiment. NMO-IgG and control-IgG was purified by protein G adsorption (FIG. 1). An osmotic mini-pump delivery system loaded with either NMO-IgG, AQP4-IgG or control-IgG was placed subcutaneously and IgG was infused continuously into the spinal subarachnoid space via intrathecal catheter for 5 to 7 days (FIG. 2A). […] Gait analysis was also performed using ink tracking as described elsewhere (see, e.g., Zhang et al., J. Autoimmun. 53:67-77 (2014)). […] After 5 days of either […], 3 µg/µL, or 1 µg/µL NMO-IgG treatment, stride lengths decreased from an average of 5.7 cm to 2.6, 3.8, and 5.0 cm respectively (FIGS. 2C and 2D).
# A 3.5 cm polyurethane-silicone catheter (Alzet, CA) was inserted at the condylar canal to accesses the subarachnoid space at the cisterna magna and extended to lumbar level of spinal cord. Five days later an osmotic mini-pump delivery system, containing either NMO-IgG or control-IgG, was placed subcutaneously over the right shoulder. IgG was delivered continuously for 5-7 days (1-10 µg/day) (FIG. 2A).
# The rotarod tests were performed using a five-lane Rotarod apparatus (Med Assocaites Inc). The rotarod speed started from 4 rounds per minute and uniformly accelerated to 40 rounds per minute over 5 minutes. Each mouse was tested for 3 times with 15 minute intervals. For gait analysis, mouse fore and hind limbs were covered by different color ink and allowed to walk freely across a narrow strip of paper. Stride length of hind limbs was reported as the mean of 5 sequential steps.
# Minocycline hydrochloride was dissolved in PBS with 1% DMSO at 30 µg/µL and mixed with 20 µg/µL NMO-IgG to make a mixture of 15 µg/µL minocycline and 10 µg/µL NMO-IgG. […]
# [2] = tested on: microglia; assay: Iba1 immunostaining of spinal cord microglia (activation or depletion); format: in vivo, mice
# Text: To examine microglial activation in our murine model of NMO, genetic labeling of microglia (CX3CR1^GFP/+) and immunostaining for the microglial marker Iba1 were used. […] In addition, NMO-IgG induced striking morphological transition of microglia, from “resting” ramified to “activated” bushy phenotype in time-dependent manner (FIG. 4C).
# Microglial activation after NMO-IgG infusion indicates a potential role for microglia in NMO pathogenesis. To test this idea, microglia ablation approaches were utilized to directly examine the requirement of microglia in NMO-induced motor deficits. […].
# TM (Sigma) was administered as a solution in corn oil (Sigma) to mice over 4 weeks of age via i.p. injection. Animals received four doses of TM (150 mg kg^-1, 20 mg mL^-1 in corn oil) in 48 hour intervals. […] Mice administered with DT only (without TM) were used as control for all ablation experiments.
# (§1) Mice were deeply anaesthetized with isoflurane (5% in O2) and perfused transcardially with 20 mL PBS followed by 20 mL of cold 4% paraformaldehyde (PFA) in PBS. The spinal cord was removed and post-fixed with 4% PFA for 6 hours at 4° C. Samples were then transferred to 30% sucrose in PBS overnight. […] Cell counting and fluorescent signal intensity was quantified using ImageJ software (National Institutes of Health, Bethesda, MD).
# Quantification of Iba1 cells was done with ImageJ software (NIH Image). […]
# [3] = tested on: microglia; assay: In situ microglial process chemoattraction assay (C3a-containing pipettes); format: cell-based, mice
# Procedure: The cleavage of the complement component C3 produces two signaling molecules, C3a and C3b.
# Hippocampal tissue slices ([…] thick) were prepared from P14-21 mice and incubated in imaging media. Microglia were visualized by GFP. For each image in the time-series, 15 z-steps spaced […] apart were collected per image ([…] total depth). Images were taken at 5 minute intervals for up to 1 hour on Scientifica 2-photon microscope with an X20 lens. Image processing and analysis was performed using NIH Image J software.
# [4] = tested on: microglia-astrocyte interaction; assay: Microglia-astrocyte interaction (Iba1/GFAP or CX3CR1-GFP/GFAP overlap) in L4 spinal cord; format: in vivo, mice; conditions: intrathecal, 150 µg/day, with NMO-IgG infusion
# Text: However, the question remains as to what cellular and molecular mechanisms underlie microglial function in NMO. […] Under control conditions, GFAP^+ astrocytes rarely overlap with Iba1^+ microglia. However, spatial overlapping was abundant after NMO-IgG exposure. […] Specifically, on average only 17% of microglia interact with astrocytes under control conditions while 65% of microglia overlap with astrocytes after NMO-IgG infusion.
# as §1, with “overnight. Sample sections ([…] in thickness) were prepared on gelatin-coated glass slide with a cryostat (Leica).” for “overnight.”
# [5] = tested on: astrocyte complement C3; assay: Complement C3 and GFAP double staining of astrocytes in L4 spinal cord; format: in vivo, mice; conditions: minocycline co-infusion with NMO-IgG
# Text: Astrocytes exposed in culture to NMO-IgG increase their production and secretion of all complement components, except C1q, which is made by activated microglia (see, Howe et al., Glia 62:692-708 (2014)). […] In contrast, C3 expression was principally restricted to the lumen of blood vessels following control-IgG exposure. The percentage of C3^+ astrocytes in spinal cord of mice receiving NMO-IgG was ~5-fold higher than that of control-IgG recipients (FIG. 10A). C3 upregulation in astrocytes is independent of microglia, as a similar C3 increase was found after microglia ablation (FIG. 11).
# as §1, with “overnight. Sample sections ([…] in thickness) were prepared on gelatin-coated glass slide with a cryostat (Leica).” for “overnight.”
compound,measurement,setting,value
"FC(F)(F)c1ccc(CNc2ccc(Cc3c[nH]c4ncc(Cl)cc34)cn2)cn1 [PLX3397, Pexidartinib]",motor function after NMO-IgG infusion (rotarod) versus control chow-treated group,[1]; PLX3397 chow started 7 days before NMO-IgG infusion,significantly better
same,depletion of microglia in the L4 spinal cord (Iba1+ cell density),"[2]; PLX3397 chow, day 5 after NMO-IgG infusion, versus control chow",eliminated most of the microglia
diphtheria toxin,depletion of spinal microglia,"[2]; CX3CR1CreER/+:R26iDTR/+ mice after tamoxifen, 1 to 3 days after DT 50 µg/Kg i.p.",mostly depleted
C3a: signaling molecule produced by cleavage of complement component C3,time to induce microglial process chemotaxis,[3],≤ 30 min
CN(C)c1ccc(O)c2c1C[C@H]1C[C@H]3[C@H](N(C)C)C(O)=C(C(N)=O)C(=O)[C@@]3(O)C(O)=C1C2=O [minocycline],effect on NMO-IgG induced motor dysfunction in rotarod test,"[1]; intrathecal, 150 µg/day, co-infused with NMO-IgG",prevented the NMO-IgG induced motor dysfunction
same,effect on motor impairment when given after onset,[1]; systemic injection after 2 days of NMO-IgG infusion,reversed the motor impairment
same,effect on microglia-astrocyte interaction,[4],reduced microglia-astrocyte interaction
same,effect on NMO-IgG upregulation of astrocyte complement C3,[5],not altered
